Source: US20230086703A1, “N-(4-(5-chloropyridin-3-yl)phenyl)-2-(2-(cyclopropanesulfonamido)pyrimidin-4-yl) butanamide derivatives and related compounds as human CTPS1 inhibitors for the treatment of proliferative diseases” (Step Pharma S.A.S., priority 2019, published 2023)

Target: T1, human CTPS1 (Homo sapiens, UniProt P17812)
T1 construct: FLAG (with GG linker); His8 (with GG linker); purchased Proteros biostructures GmbH
T1 sequence (P17812 1-591): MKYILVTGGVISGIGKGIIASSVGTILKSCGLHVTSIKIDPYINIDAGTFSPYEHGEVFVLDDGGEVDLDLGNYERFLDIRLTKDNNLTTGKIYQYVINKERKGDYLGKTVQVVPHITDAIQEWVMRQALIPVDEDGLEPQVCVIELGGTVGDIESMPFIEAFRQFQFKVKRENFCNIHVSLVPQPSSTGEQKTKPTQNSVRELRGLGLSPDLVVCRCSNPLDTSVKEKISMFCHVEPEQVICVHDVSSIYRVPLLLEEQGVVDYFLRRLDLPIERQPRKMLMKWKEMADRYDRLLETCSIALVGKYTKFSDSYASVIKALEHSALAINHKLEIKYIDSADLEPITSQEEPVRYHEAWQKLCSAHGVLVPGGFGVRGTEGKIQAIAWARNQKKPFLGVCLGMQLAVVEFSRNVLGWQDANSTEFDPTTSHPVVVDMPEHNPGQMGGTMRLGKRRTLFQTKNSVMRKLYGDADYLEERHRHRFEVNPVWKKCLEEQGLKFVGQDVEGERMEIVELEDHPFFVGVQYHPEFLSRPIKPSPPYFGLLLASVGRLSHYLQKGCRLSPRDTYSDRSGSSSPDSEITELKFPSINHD
Assay: Human CTPS1 enzyme inhibition, ADP-Glo Max assay
Format: biochemical
Details: ADP-Glo Max assay
Protocol: The enzyme inhibitory activities of compounds invented against the target of interest were determined using the ADP-Glo™ Max assay (Promega, UK). Assays for human CTPS1 were performed in 1× assay buffer containing 50 mM Tris, 10 mM MgCl2, 0.01% Tween-20, pH to 8.0 accordingly. Finally, immediately before use, L-cysteine was added to the 1× assay buffer to a final concentration of 2 mM. All reagents are from Sigma-Aldrich unless specified otherwise.
3× human CTPS1 protein was prepared in 1× assay buffer to the final working protein concentration required for the reaction. A 2 uL volume per well of 3× human CTPS1 protein was mixed with 2 uL per well of 3× test compound (compound prepared in 1× assay buffer to an appropriate final 3× compound concentration respective to the concentration response curve designed for the compounds under test) for 10 minutes at 25° C. […] ADP-Glo™ Max reagent was added for 60 minutes (6 μL per well) and subsequently ADP-Glo™ Max development reagent was added for 60 minutes (12 uL per well) prior to signal detection in a microplate reader (EnVision® Multilabel Reader, Perkin Elmer). Following each reagent addition over the course of the assay, assay plates were pulse centrifuged for 30 seconds at 500 rpm.
In all cases, the enzyme converts ATP to ADP and the ADP-Glo™ Max reagent subsequently depletes any remaining endogenous ATP in the reaction system. The ADP-Glo™ Max detection reagent converts the ADP that has been enzymatically produced back into ATP and using ATP as a substrate together with luciferin for the enzyme luciferase, light is generated which produces a detectable luminescence. […] The percentage inhibition produced by each concentration of compound was calculated using the equation shown below: […]

inhibition of CTPS1 enzyme (result in words)	Compound
activity is retained	CCOc1cncc(-c2ccc(CNC(C)(C)c3csc(NS(=O)(=O)C4CC4)n3)c(F)c2)n1 [R94, N-(4-(2-((4-(6-Ethoxypyrazin-2-yl)-2-fluorobenzyl)amino)propan-2-yl)thiazol-2-yl)cyclopropanesulfonamide]

Same assay, conditions: ADP-Glo Max assay, human full length CTPS1; read-out: CTPS1 (Human CTPS1 Enzyme Inhibition data grouped by potency range, IC50)

IC50	Compound
< 0.1 µM	CCOc1cncc(-c2ccc(NC(=O)C3(c4ccnc(NS(=O)(=O)C5CC5)n4)CCN(C(=O)OC(C)(C)C)CC3)nc2)n1 [P139, tert-butyl 4-(2-(cyclopropanesulfonamido)pyrimidin-4-yl)-4-((5-(6-ethoxypyrazin-2-yl)pyridin-2-yl)carbamoyl)piperidine-1-carboxylate]

Same assay, conditions: ADP-Glo Max assay; Table 10; read-out: Human CTPS1 Enzyme Inhibition, IC50 grouped by potency range (CTPS1)

IC50	Compound
< 0.1 µM	CCC(C(=O)Nc1ccc(-c2cncc(F)c2)cc1)c1csc(NS(=O)(=O)C2CC2)n1 (single isomer, unassigned) [T72, 2-(2-(cyclopropanesulfonamido)thiazol-4-yl)-N-(4-(5-fluoropyridin-3-yl)phenyl)butanamide]
< 0.1 µM	CCC(C(=O)Nc1ccc(-c2cncc(C(F)(F)F)n2)cc1)c1csc(NS(=O)(=O)C2CC2)n1 (single isomer, unassigned) [T106, 2-(2-(cyclopropanesulfonamido)thiazol-4-yl)-N-(4-(6-(trifluoromethyl)pyrazin-2-yl)phenyl)butanamide]
< 0.1 µM	COc1cncc(-c2ccc(NC(=O)C(OC)c3csc(NS(=O)(=O)C4CC4)n3)cc2)n1 (single isomer, unassigned) [T107, 2-(2-(cyclopropanesulfonamido)thiazol-4-yl)-2-methoxy-N-(4-(6-methoxypyrazin-2-yl)phenyl)acetamide]
< 0.1 µM	COC(C(=O)Nc1ccc(-c2cncc(C(F)(F)F)n2)cc1F)c1csc(NS(=O)(=O)C2CC2)n1 (single isomer, unassigned) [T458, 2-(2-(cyclopropanesulfonamido)thiazol-4-yl)-N-(2-fluoro-4-(6-(trifluoromethyl)pyrazin-2-yl)phenyl)-2-methoxyacetamide]
< 0.1 µM	COC(C(=O)Nc1ccc(-c2cncc(C(F)(F)F)n2)cc1F)c1csc(NS(=O)(=O)C2CC2)n1 (single isomer, unassigned) [T459, 2-(2-(cyclopropanesulfonamido)thiazol-4-yl)-N-(2-fluoro-4-(6-(trifluoromethyl)pyrazin-2-yl)phenyl)-2-methoxyacetamide]
0.1 to 1 µM	O=C(Cc1csc(NS(=O)(=O)C2CC2)n1)Nc1ccc(-c2cncnc2)nc1 [T23, 2-(2-(cyclopropanesulfonamido)thiazol-4-yl)-N-(6-(pyrimidin-5-yl)pyridin-3-yl)acetamide]
1 to 10 µM	O=C(Cc1csc(NS(=O)(=O)C2CC2)n1)Nc1ccc(-c2ccc(F)cc2)cc1 [T25, 2-(2-(cyclopropanesulfonamido)thiazol-4-yl)-N-(4′-fluoro-[1,1′-biphenyl]-4-yl)acetamide]
0.1 to 1 µM	CN(C(=O)Cc1csc(NS(=O)(=O)C2CC2)n1)c1ccc(-c2cccnc2)cc1 [T26, 2-(2-(cyclopropanesulfonamido)thiazol-4-yl)-N-methyl-N-(4-(pyridin-3-yl)phenyl)acetamide]
0.1 to 1 µM	COc1cccc(-c2ccc(NC(=O)C(C)(C)c3csc(NS(=O)(=O)C4CC4)n3)cc2)c1 [T28, 2-(2-(cyclopropanesulfonamido)thiazol-4-yl)-N-(3′-methoxy-[1,1′-biphenyl]-4-yl)-2-methylpropanamide]
< 0.1 µM	Cc1cncc(-c2ccc(NC(=O)C(C)(C)c3csc(NS(=O)(=O)C4CC4)n3)cc2)c1 [T30, 2-(2-(cyclopropanesulfonamido)thiazol-4-yl)-2-methyl-N-(4-(5-methylpyridin-3-yl)phenyl)propanamide]
1 to 10 µM	CC(C)(C(=O)Nc1ccc(-c2ccnnc2)cc1)c1csc(NS(=O)(=O)C2CC2)n1 [T31, 2-(2-(cyclopropanesulfonamido)thiazol-4-yl)-2-methyl-N-(4-(pyridazin-4-yl)phenyl)propanamide]
< 0.1 µM	CC(C)(C(=O)Nc1ccc(-c2cnccn2)cc1)c1csc(NS(=O)(=O)C2CC2)n1 [T32, 2-(2-(cyclopropanesulfonamido)thiazol-4-yl)-2-methyl-N-(4-(pyrazin-2-yl)phenyl)propanamide]
0.1 to 1 µM	CC(C)(C(=O)Nc1ccc(-c2cnccn2)c(C#N)c1)c1csc(NS(=O)(=O)C2CC2)n1 [T34, N-(3-cyano-4-(pyrazin-2-yl)phenyl)-2-(2-(cyclopropanesulfonamido)thiazol-4-yl)-2-methylpropanamide]
0.1 to 1 µM	CC(C)(C(=O)Nc1ccc(-c2cccnc2)c(F)c1F)c1csc(NS(=O)(=O)C2CC2)n1 [T36, 2-(2-(cyclopropanesulfonamido)thiazol-4-yl)-N-(2,3-difluoro-4-(pyridin-3-yl)phenyl)-2-methylpropanamide]
0.1 to 1 µM	CC(C)(C(=O)Nc1ncc(-c2cccnc2)cn1)c1csc(NS(=O)(=O)C2CC2)n1 [T37, 2-(2-(cyclopropanesulfonamido)thiazol-4-yl)-2-methyl-N-(5-(pyridin-3-yl)pyrimidin-2-yl)propanamide]
< 0.1 µM	CCCOc1cncc(-c2ccc(NC(=O)C(C)(C)c3csc(NS(=O)(=O)C4CC4)n3)nc2)n1 [T38, 2-(2-(cyclopropanesulfonamido)thiazol-4-yl)-2-methyl-N-(5-(6-propoxypyrazin-2-yl)pyridin-2-yl)propanamide]
< 0.1 µM	CC(C)(C(=O)Nc1ccc(-c2cccnc2)cc1OC(F)(F)F)c1csc(NS(=O)(=O)C2CC2)n1 [T40, 2-(2-(cyclopropanesulfonamido)thiazol-4-yl)-2-methyl-N-(4-(pyridin-3-yl)-2-(trifluoromethoxy)phenyl)propanamide]
0.1 to 1 µM	COc1cc(NC(=O)C(C)(C)c2csc(NS(=O)(=O)C3CC3)n2)ccc1-c1cnccn1 [T43, 2-(2-(cyclopropanesulfonamido)thiazol-4-yl)-N-(3-methoxy-4-(pyrazin-2-yl)phenyl)-2-methylpropanamide]
0.1 to 1 µM	COc1ncccc1-c1ccc(NC(=O)C(C)(C)c2csc(NS(=O)(=O)C3CC3)n2)cc1 [T44, 2-(2-(cyclopropanesulfonamido)thiazol-4-yl)-N-(4-(2-methoxypyridin-3-yl)phenyl)-2-methylpropanamide]
0.1 to 1 µM	O=C(Cc1csc(NS(=O)(=O)C2CC2)n1)Nc1ccc(-c2cncc(CO)c2)cc1 [T45, 2-(2-(cyclopropanesulfonamido)thiazol-4-yl)-N-(4-(5-(hydroxymethyl)pyridin-3-yl)phenyl)acetamide]
1 to 10 µM	COc1ccc(-c2ccc(NC(=O)C(C)(C)c3csc(NS(=O)(=O)C4CC4)n3)cc2)cn1 [T46, 2-(2-(cyclopropanesulfonamido)thiazol-4-yl)-N-(4-(6-methoxypyridin-3-yl)phenyl)-2-methylpropanamide]

Same assay, conditions: Table 12, ADP-Glo Max assay; read-out: CTPS1 (Human CTPS1 Enzyme Inhibition data grouped by potency range)

IC50	Compound
0.1 to 1 µM	CCOc1cnc(-c2ccc(NC(CC)c3ccnc(NS(=O)(=O)C4CC4)n3)cc2)cn1 (stereo not shown) [P261]
< 0.1 µM	CCOc1cncc(-c2ccc(NC(=O)C3(c4ccnc(NS(=O)(=O)C5CC5)n4)CCN(C(=O)COC)CC3)nc2)n1 [P288]
< 0.1 µM	CCOC(=O)CN1CCC(C(=O)Nc2ccc(-c3cncc(OCC)n3)cn2)(c2nccc(NS(=O)(=O)C3CC3)n2)CC1 [P295]
< 0.1 µM	CCOc1cncc(-c2ccc(NC(=O)C3(c4ccnc(NS(=O)(=O)CC)n4)CCN(C(=O)COC)CC3)nc2)n1 [P296]
< 0.1 µM	CCOc1cncc(-c2ccc(NC(=O)C3(c4ccnc(NS(=O)(=O)C5CC5)n4)CCC(N)CC3)nc2)n1 (stereo not shown) [P304]
< 0.1 µM	CCOc1cncc(-c2ccc(NC(=O)C3(c4ccnc(NS(=O)(=O)C5CC5)n4)CCC(N(C)CC(F)F)CC3)nc2)n1 (stereo not shown) [P310]
0.1 to 1 µM	CCOc1cncc(-c2ccc(NC(=O)C3(c4ccnc(NS(=O)(=O)C5CC5)n4)CCC(N4CCN(C)CC4)CC3)nc2)n1 (stereo not shown) [P311]

Same assay, conditions: Table 14, ADP-Glo Max assay; read-out: CTPS1 (Human CTPS1 Enzyme Inhibition data grouped by potency range)

IC50	Compound
< 0.1 µM	CCOc1cncc(-c2ccc(CNC(C)(C)c3csc(NS(=O)(=O)C4CC4)n3)c(F)c2)n1 [R94, N-(4-(2-((4-(6-Ethoxypyrazin-2-yl)-2-fluorobenzyl)amino)propan-2-yl)thiazol-2-yl)cyclopropanesulfonamide]
